From US8183252B2, “Heterocyclic aspartyl protease inhibitors” (Schering Corporation, priority 2007, dated 2012)

These molecules were tested against T1, human BACE1 (sproBACE1) (Homo sapiens, UniProt P56817) (assay: BACE-1 Peptide Hydrolysis Assay (HTRF)). Details: read-out: BACE-1 Ki.
T1 construct: sBACE1, corresponding to amino acids 1-454; made in house; host or cells: Sf9 insect cells (baculovirus), secreted into the medium
Assay type: biochemical
Excerpt: A HindIII/PmeI fragment from pCDNA4-sBACE1myc/His was blunt ended using Klenow and subcloned into the Stu I site of PFASTBACI(A) (Invitrogen). A sBACE1mycHis recombinant bacmid was generated by transposition in DH10Bac cells (GIBCO/BRL). Subsequently, the sBACE1mycHis bacmid construct was transfected into sf9 cells using CellFectin (Invitrogen, San Diego, Calif.) in order to generate recombinant baculovirus. […] Five milliliters of high titer plaque purified sBACEmyc/His virus was used to infect 1 L of logarithmically growing sf9 cells for 72 hours. Intact cells were pelleted by centrifugation at 3000×g for 15 minutes. The supernatant, containing secreted sBACE1, was collected and diluted 50% v/v with 100 mM HEPES, pH 8.0. The diluted medium was loaded onto a Q-sepharose column. The Q-sepharose column was washed with Buffer A (20 mM HEPES, pH 8.0, 50 mM NaCl).
Proteins, were eluted from the Q-sepharose column with Buffer B (20 mM HEPES, pH 8.0, 500 mM NaCl). The protein peaks from the Q-sepharose column were pooled and loaded onto a Ni-NTA agarose column. The Ni-NTA column was then washed with Buffer C (20 mM HEPES, pH 8.0, 500 mM NaCl). Bound proteins were then eluted with Buffer D (Buffer C+250 mM imidazole).
Reactions were initiated by addition of substrate in a 5 μl aliquot resulting in a total volume of 25 μl. After 3 hr at 30° C. reactions were terminated by addition of an equal volume of 2× stop buffer containing 50 mM Tris-HCl pH 8.0, 0.5 M KF, 0.001% Brij-35, 20 μg/ml SA-XL665 (cross-linked allophycocyanin protein coupled to streptavidin; CIS-Bio International, France) (0.5 μg/well). Plates were shaken briefly and spun at 1200×g for 10 seconds to pellet all liquid to the bottom of the plate before the incubation.
Y=Bottom+(Top-Bottom)/(1+10^((LogEC50−X)*Hill Slope)); X is the logarithm of concentration of I, Y is the percent change in ratio and Y starts at bottom and goes to top with a sigmoid shape.

T1 sequence (P56817 22-454): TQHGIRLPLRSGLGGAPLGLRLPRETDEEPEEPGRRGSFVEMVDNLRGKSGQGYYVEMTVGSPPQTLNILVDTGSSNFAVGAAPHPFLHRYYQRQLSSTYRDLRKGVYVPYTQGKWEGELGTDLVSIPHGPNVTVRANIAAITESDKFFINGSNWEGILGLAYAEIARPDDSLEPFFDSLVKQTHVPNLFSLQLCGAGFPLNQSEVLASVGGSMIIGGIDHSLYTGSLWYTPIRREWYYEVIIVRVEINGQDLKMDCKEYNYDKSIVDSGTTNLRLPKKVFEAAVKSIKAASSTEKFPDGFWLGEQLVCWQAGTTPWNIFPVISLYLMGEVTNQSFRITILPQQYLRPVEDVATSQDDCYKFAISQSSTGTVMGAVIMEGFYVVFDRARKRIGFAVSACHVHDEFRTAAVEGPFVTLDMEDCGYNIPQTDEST

Ki, < 5 µM:
COCC1CCCN1C(=O)c1cncc(CN2C(=N)NC(c3cccc(Br)c3)(C3CC3)C2=O)c1 (stereo not drawn)
CN1C(=N)N[C@](C)(c2csc(-c3ccc(F)c(C#N)c3)c2)CC1=O
CN1C(=N)N[C@](C)(c2cc(-c3ccc(F)c(C#N)c3)nn2C)CC1=O
CN1C(=N)N[C@@]2(CCCc3sc(-c4ccc(F)c(C#N)c4)cc32)CC1=O
CN1C(=N)NC(c2ccccc2)(c2cc(-c3cccnc3)cs2)C1=O (stereo not drawn)
CN1C(=N)NC(c2ccccc2)(c2cc(-c3cncnc3)cs2)C1=O (stereo not drawn)
CN1C(=N)N[C@](CCc2ccccc2)(C[C@H]2CCC[C@H](Nc3cccnc3)C2)C1=O
Cn1nccc1CN1C(=N)NC(c2ccccc2)(c2ccccc2)C1=O
CCCN(CCC)C(=O)CCCCN1C(=N)NC(c2ccccc2)(c2ccccc2)C1=O
N=C1NC(c2ccccc2)(c2cccc(-c3cccnc3)c2)C(=O)N1CC1CCNCC1 (stereo not drawn)
N=C1NC(c2ccccc2)(c2ccccc2)C(=O)N1Cc1cccnc1
N=C1NC(c2ccccc2)(c2ccccc2)C(=O)N1CC1CCN(c2ccc3ccccc3n2)CC1
CN1C(=N)N[C@](C)(c2cc(-c3cc(Cl)cc(C#N)c3)cs2)CC1=O
C[C@H]1C(=O)N(C)C(=N)N[C@]1(C)c1cc(-c2cc(Cl)cc(C#N)c2)cs1
CN1C(=N)N[C@](C)(c2ncc(-c3cc(F)cc(C#N)c3)s2)CC1=O
N=C1NC(c2ccccc2)(c2ccccc2)C(=O)N1Cc1ccoc1
CN1C(=N)NC(c2csc(-c3cccc(C#N)c3)c2)(C2CC2)C1=O (stereo not drawn)
CN1C(=N)NC(C)(c2cc(-c3cccc(C#N)c3)cs2)C(CC=Cc2ccc(F)cc2)C1=O (stereo not drawn)
CN1C(=N)N[C@](C)(c2cc(-c3cccc(C#N)c3)cs2)[C@@H](c2csc3ccccc23)C1=O
Cc1ccc(N2CCC([C@H]3C(=O)N(C)C(=N)N[C@]3(C)c3cc(-c4cccc(C#N)c4)cs3)CC2)cc1
CC(C)Oc1cccc([C@H]2C(=O)N(C)C(=N)N[C@]2(C)c2cc(-c3cccc(C#N)c3)cs2)c1
CN1C(=N)N[C@](C)(c2cc(-c3cccc(C#N)c3)c(C3=CCN(c4ccccc4)CC3)s2)CC1=O
Cc1cc([C@]2(C)CC(=O)N(C)C(=N)N2)sc1-c1cccc(C#N)c1
CN1C(=N)NC(C)(c2cc(-c3cccc(C#N)c3)cs2)C(CCCc2ccccc2)C1=O (stereo not drawn)
CN1C(=N)NC(C)(c2cc(-c3cccc(C#N)c3)cs2)C(CCCc2ccncc2)C1=O (stereo not drawn)
CC1(c2cccc(-c3cccc(Cl)c3)c2)NC(=N)N(CC2CCN(C(=O)Cc3ccccc3)C2)C1=O (stereo not drawn)
CC1(c2cccc(-c3cccc(Cl)c3)c2)NC(=N)N(CC2CCN(S(=O)(=O)c3ccccc3)C2)C1=O (stereo not drawn)
CC(=O)N1CCC(CN2C(=N)NC(C)(c3cccc(-c4cccc(C(=O)NCc5ccco5)c4)c3)C2=O)CC1 (stereo not drawn)
CN1C(=N)N[C@@](c2cccc(-c3ccc(F)c(C#N)c3)c2)(C2CC2)C1=O
CN1C(=N)N[C@](C)(c2scc(C#N)c2F)CC1=O
N=C1NC(c2ccccc2)(c2ccccc2)C(=O)N1Cc1cccc(C(=O)N2CCOCC2)c1
CN(C)C(=O)N1CCC([C@H]2C(=O)N(C)C(=N)N[C@]2(C)c2cc(-c3cccc(C#N)c3)cs2)CC1
Cc1csc(-c2csc(C3(C4CC4)NC(=N)N(C)C3=O)c2)c1 (stereo not drawn)
COc1ccc(F)c(-c2cccc(C3(C)CON(C)C(=N)N3)c2)c1 (stereo not drawn)
CN1C(=N)NC(C)(c2cccc(-c3cncc(F)c3)c2)C1=O (stereo not drawn)
CCn1nccc1Nc1cccc(C2(c3ccccc3)NC(=N)N(C)C2=O)c1 (stereo not drawn)
CN1CCC(CN2C(=N)NC(C)(c3cccc(-c4cccc(Cl)c4)c3)C2=O)C1 (stereo not drawn)
CN1C(=N)N[C@](C)(c2cc(-c3ccc(F)c(C#N)c3)cs2)[C@@H](C2CC2)C1=O
CN1C(=N)N[C@](C)(c2cc(-c3ccc(F)c(C#N)c3)c(F)s2)[C@@H](C2CC2)C1=O
Cc1ccc(-c2csc([C@]3(C)CC(=O)N(C)C(=N)N3)c2)cc1C#N
CN1C(=N)N[C@](C)(c2cc(-c3cc(C#N)cc(C#N)c3)nn2C)CC1=O
C[C@H]1C(=O)N(C)C(=N)N[C@]1(C)c1cc(-c2cc(C#N)cc(C#N)c2)cs1
CN1C(=N)N[C@](C)(c2cnc[nH]2)[C@@H](c2cccc(C(C)(F)F)c2)C1=O
CN1C(=N)N[C@](C)(c2ccc(C#N)s2)[C@@H](c2ccc(C(C)(F)F)cc2)C1=O
CCCN(CCC)C(=O)c1ncc(CN2C(=N)NC(c3ccccc3)(c3ccccc3)C2=O)[nH]1
CSc1cccc(-c2cccc([C@@]3(C4CC4)NC(=N)N(C)C3=O)c2)c1
CN1C(=N)N[C@](CCC2CCCCC2)(C[C@H]2CCC[C@@H](NCCc3ccccc3)C2)C1=O
CN1C(=N)N[C@](CCC2CCCCC2)(C[C@H]2CCC[C@@H](N(C)C)C2)C1=O
CN1C(=N)N[C@@](c2cccc(-c3cc(Br)ccn3)c2)(C2CC2)C1=O
CN1C(=N)N[C@](CCc2ccccc2)(C[C@H]2CCC[C@@H](NC3CCCCC3)C2)C1=O
CN1C(=N)N[C@](CCc2ccccc2)(C[C@H]2CCC[C@@H](NC3CCCC3)C2)C1=O
CN1C(=N)N[C@@](C[C@H]2CCC[C@@H](Nc3ccc4ccccc4n3)C2)(C2CC2)C1=O
CN1C(=N)N[C@@](CCC2CCCCC2)(C[C@H]2CCC[C@@H](Nc3cnc4cc(Cl)ccc4n3)C2)C1=O
Cc1nn(C)c2sc([C@]3(C)CC(=O)N(C)C(=N)N3)cc12
CN1C(=N)N[C@](C)(c2ccc(F)cc2F)CC1=O
CN1C(=N)N[C@](C)(c2ccnc(-c3cccnc3F)c2)CC1=O
CN1C(=N)N[C@](C)(c2ccc3scc(CCC4CC4)c3c2)CC1=O
CN1C(=N)N[C@](C)(c2cc(-c3cccc(Br)c3)nn2C)C(C)(C)C1=O
CN1C(=N)N[C@](C)(c2cc(-c3cccc(Br)c3)ns2)CC1=O
CN1C(=N)N[C@](C)(c2cccc(-c3ccc4scnc4c3)c2)CC1=O
CN1C(=N)N[C@](C)(c2cc(Br)co2)CC1=O
CN1C(=N)N[C@](C)(c2cc(Br)c(-c3cncc(Br)c3)s2)CC1=O
Cc1cc(F)ccc1[C@]1(C)CC(=O)N(C)C(=N)N1
CN1C(=N)N[C@](C)(c2cc(-c3cccc(Cl)c3)ccn2)CC1=O
CCOc1cc(F)cc(-c2csc([C@]3(C)CC(=O)N(C)C(=N)N3)c2)c1
CN1C(=N)N[C@](C)(c2cc(-c3cccc(F)c3)c3sccc3c2)CC1=O
CN1C(=N)N[C@](C)(c2cc(-c3ccc(F)nc3)c3sccc3c2)CC1=O
N=C1NC(c2ccccc2)(c2ccccc2)C(=O)N1Cc1cccc(NC(=O)C2CCCC2)c1
CN1C(=N)N[C@](CCC2CCCCC2)(C[C@H]2CCC[C@@H](NS(=O)(=O)c3ccccc3)C2)C1=O
CN1C(=N)N[C@](CCC2CCCCC2)(C[C@H]2CCC[C@@H](NC(=O)c3ccnnc3)C2)C1=O
CN1C(=N)NC(C)(c2cccc(-c3cc(Cl)ccc3CNC(=O)c3ccncc3)c2)C1=O (stereo not drawn)
CC(=O)N1CCC[C@H](CN2C(=N)NC(c3ccccc3)(c3ccccc3)C2=O)C1
N=C1NC(c2ccccc2)(c2ccccc2)C(=O)N1CC1CCN(C(=O)CCN)CC1
N=C1NC(c2ccccc2)(c2ccccc2)C(=O)N1CC1CCN(C(=O)CN)CC1
CCCC(=O)N1CCC[C@H](CN2C(=N)NC(c3ccccc3)(c3ccccc3)C2=O)C1
N=C1NC(c2ccccc2)(c2ccccc2)C(=O)N1CC1CCN(C(=O)C2(c3ccccc3)CC2)CC1
CCCn1ncc2ccc([C@]3(C)CC(=O)N(C)C(=N)N3)cc21
Cc1c(-c2cccc(OC(F)(F)F)c2)csc1[C@]1(C)CC(=O)N(C)C(=N)N1
Cc1cc([C@]2(C)CC(=O)N(C)C(=N)N2)sc1-c1cccc(OC(F)(F)F)c1
CN1C(=N)N[C@](C)(c2nc(-c3cccnc3)cs2)CC1=O
CN1C(=N)N[C@](C)(c2cc(-c3cccc(OC(F)(F)F)c3)ccn2)CC1=O
CN1C(=N)N[C@](C)(c2cc(-c3cncnc3)cs2)CC1=O
CN1C(=N)N[C@](C)(c2csc3c(-c4ccccc4)cccc23)CC1=O
CN1C(=N)N[C@](C)(c2cc(-c3ccncc3)c3sccc3c2)CC1=O
